# From patent publication US20250215039A1, “NUCLEOSIDES FOR TREATING CANCER” (PRIMEFOUR THERAPEUTICS, INC., priority 2022, published 2025)
# pIC50: −log10 of the molar value. Like-named read-outs stand apart in the source and are kept apart here.
# System: cancer cell lines
# Assay: Cancer cell proliferation activity (CellTiterGlo, 72 h)
# Format: cell-based
# Conditions: 72 h, 72 h, read-out: IC50
# In short: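 Cells seeded overnight at 37 °C, then dosed with compound at 0.1% final DMSO and incubated 72 h at 37 °C (5% or 10% CO2 by medium).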
smiles,measurement,setting,value
"C[C@]1(CO)O[C@@H](n2cnc3c(N)nc(F)nc32)C[C@@H]1O [Cpd. No. 126, (2R,3S,5R)-5-(6-amino-2-fluoro-9H-purin-9-yl)-2-(hydroxymethyl)-2-methyltetrahydrofuran-3-ol]",pIC50,5637 cell line (bladder),6.00
same,pIC50,CLS439 cell line (bladder),< 4.30
same,pIC50,HS729 cell line (muscle),5.87
same,pIC50,HSS78T cell line,6.09
same,pIC50,JAR cell line (placenta),6.34
same,pIC50,SKMELS cell line,< 4.30
same,pIC50,"Homo sapiens, 22Rv1, 72 h, 22RV1 cell line (prostate)",5.80
same,pIC50,"Homo sapiens, 786-0, 72 h, 786O cell line (kidney)",6.28
same,pIC50,"Homo sapiens, A204, 72 h, A204 cell line (muscle)",6.54
same,pIC50,"Homo sapiens, A549, 72 h, A549 cell line",< 4.30
same,pIC50,"Homo sapiens, A673, 72 h, A673 cell line (bone)",5.64
same,pIC50,"Homo sapiens, A2780, 72 h, A2780 cell line (ovary)",5.90
same,pIC50,"Homo sapiens, A-375, 72 h, A375 cell line (skin)",6.59
same,pIC50,"Homo sapiens, A-431, 72 h, A431 cell line (skin)",6.47
same,pIC50,"Homo sapiens, ACHN, ACHN cell line (kidney)",5.48
same,pIC50,"Homo sapiens, ASPC1, 72 h, ASPC1 cell line (pancreas)",6.38
same,pIC50,"Homo sapiens, BT-20, 72 h, BT20 cell line (breast)",6.28
same,pIC50,"Homo sapiens, BXPC-3, 72 h, BXPC3 cell line (pancreas)",< 4.30
same,pIC50,"Homo sapiens, C-33-A, C33A cell line (cervical)",5.75
same,pIC50,"Homo sapiens, CAKI-1, 72 h, CAKI1 cell line (kidney)",7.52
same,pIC50,"Homo sapiens, COLO 205, 72 h, COLO205 cell line (colon)",5.89
same,pIC50,"Homo sapiens, COLO-678, 72 h, COLO678 cell line (colon)",5.24
same,pIC50,"Homo sapiens, Ca-Ski, CASKI cell line (cervical)",6.59
same,pIC50,"Homo sapiens, Caco-2, 72 h, CACO2 cell line (colon)",6.14
same,pIC50,"Homo sapiens, Calu-6, 72 h, CALU6 cell line (lung)",6.21
same,pIC50,"Homo sapiens, DLD-1, 72 h, DLD1 cell line (colon)",5.70
same,pIC50,"Homo sapiens, DU-145, 72 h, DU145 cell line (prostate)",6.92
same,pIC50,"Homo sapiens, EFO-21, 72 h, EFO21 cell line (ovary)",6.24
same,pIC50,"Homo sapiens, EJ-28, 72 h, EJ28 cell line (bladder)",6.25
same,pIC50,"Homo sapiens, Granta-519, 72 h, GRANTA-519 cell line (hematological)",5.99
same,pIC50,"Homo sapiens, HCT-15, 72 h, HCT15 cell line (colon)",5.74
same,pIC50,"Homo sapiens, HCT-116, 72 h, HCT116 cell line (colon)",6.03
same,pIC50,"Homo sapiens, HEK293, 72 h, HEK293 cell line (kidney)",6.13
same,pIC50,"Homo sapiens, HL-60, 72 h, HL-60 cell line (hematological)",6.28
same,pIC50,"Homo sapiens, HT-29, 72 h, HT29 cell line (colon)",6.38
same,pIC50,"Homo sapiens, HT-1080, 72 h, HT1080 cell line (connective tissue)",< 4.30
same,pIC50,"Homo sapiens, HeLa, HELA cell line (cervical)",6.26
same,pIC50,"Homo sapiens, HepG2, 72 h, HEPG2 cell line (liver)",6.10
same,pIC50,"Homo sapiens, IGROV-1, 72 h, IGROV1 cell line (ovary)",6.37
same,pIC50,"Homo sapiens, IMR-90, 72 h, IMR.90 cell line",6.04
same,pIC50,"Homo sapiens, J82, 72 h, J82 cell line (bladder)",6.27
same,pIC50,"Homo sapiens, JEG-3, 72 h, JEG3 cell line (placenta)",6.43
same,pIC50,"Homo sapiens, JIMT-1, 72 h, JIMT1 cell line (breast)",7.15
same,pIC50,"Homo sapiens, K562, 72 h, K-562 cell line (hematological)",< 4.30
same,pIC50,"Homo sapiens, Kasumi 1, 72 h, KASUMI-1 cell line (hematological)",7.22
same,pIC50,"Homo sapiens, L-363, 72 h, L-363 cell line (hematological)",6.16
same,pIC50,"Homo sapiens, LoVo, LOVO cell line (colon)",6.59
same,pIC50,"Homo sapiens, MCF7, 72 h, MCF7 cell line (breast)",< 4.30
same,pIC50,"Homo sapiens, MDA-MB-231, 72 h, MDAMB231 cell line (breast)",5.57
same,pIC50,"Homo sapiens, MDA-MB-435, 72 h, MDAMB435 cell line (skin)",5.90
same,pIC50,"Homo sapiens, MDA-MB-436, 72 h, MDAMB436 cell line (breast)",6.60
same,pIC50,"Homo sapiens, MDA-MB-468, 72 h, MDAMB468 cell line (breast)",6.10
same,pIC50,"Homo sapiens, MG-63, 72 h, MG63 cell line (bone)",< 4.30
same,pIC50,"Homo sapiens, MHH-ES-1, 72 h, MHHES1 cell line (bone)",6.07
same,pIC50,"Homo sapiens, MIA PaCa-2, 72 h, MIAPACA2 cell line (pancreas)",< 4.30
same,pIC50,"Homo sapiens, MINO, MINO cell line (hematological)",6.92
same,pIC50,"Homo sapiens, MV4-11, 72 h, MV4-11 cell line (hematological)",7.15
same,pIC50,"Homo sapiens, NCI-H23, 72 h, NCI-H23 cell line (lung)",6.32
same,pIC50,"Homo sapiens, NCI-H82, 72 h, NCIH82 cell line (lung)",6.21
same,pIC50,"Homo sapiens, NCI-H292, 72 h, NCIH292 cell line (lung)",5.27
same,pIC50,"Homo sapiens, NCI-H460, 72 h, NCIH460 cell line (lung)",6.21
same,pIC50,"Homo sapiens, OVCAR-3, 72 h, OVCAR3 cell line (ovary)",6.85
same,pIC50,"Homo sapiens, OVCAR-4, 72 h, OVCAR4 cell line (ovary)",6.13
same,pIC50,"Homo sapiens, PANC-1, 72 h, PANC1 cell line (pancreas)",< 4.30
same,pIC50,"Homo sapiens, PC-3, 72 h, PC3 cell line (prostate)",5.96
same,pIC50,"Homo sapiens, PLC-PRF-5, 72 h, PLCPRF5 cell line (liver)",5.67
same,pIC50,"Homo sapiens, Panc1005, 72 h, PANC1005 cell line (pancreas)",6.62
same,pIC50,"Homo sapiens, RD, RD cell line (muscle)",5.63
same,pIC50,"Homo sapiens, Ramos, RAMOS cell line (hematological)",6.25
same,pIC50,"Homo sapiens, SAOS-2, 72 h, SAOS2 cell line (bone)",6.57
same,pIC50,"Homo sapiens, SF-268, 72 h, SF268 cell line (brain)",< 4.30
same,pIC50,"Homo sapiens, SF-295, 72 h, SF295 cell line (brain)",5.71
same,pIC50,"Homo sapiens, SK-BR-3, 72 h, SKBR3 cell line (breast)",7.00
same,pIC50,"Homo sapiens, SK-HEP1, 72 h, SKHEP1 cell line (liver)",5.32
same,pIC50,"Homo sapiens, SK-LMS-1, 72 h, SKLMS1 cell line (uterus)",6.22
same,pIC50,"Homo sapiens, SK-MEL-28, 72 h, SKMEL28 cell line (skin)",5.93
same,pIC50,"Homo sapiens, SK-N-AS, SKNAS cell line (brain)",6.11
same,pIC50,"Homo sapiens, SK-N-SH, SKNSH cell line (brain)",6.19
same,pIC50,"Homo sapiens, SK-OV-3, 72 h, SKOV3 cell line (ovary)",5.99
same,pIC50,"Homo sapiens, SNB-75, 72 h, SNB75 cell line (brain)",5.59
same,pIC50,"Homo sapiens, SU-DHL10, 72 h, SU-DHL-10 cell line (hematological)",6.34
same,pIC50,"Homo sapiens, SU-DHL-6, 72 h, SU-DHL-6 cell line (hematological)",6.44
same,pIC50,"Homo sapiens, SW-620, 72 h, SW620 cell line (colon)",6.24
same,pIC50,"Homo sapiens, T-24, 72 h, T24 cell line (bladder)",6.04
same,pIC50,"Homo sapiens, TE-671, 72 h, TE671 cell line (muscle)",5.50
same,pIC50,"Homo sapiens, THP-1, 72 h, THP-1 cell line (hematological)",6.96
same,pIC50,"Homo sapiens, U2OS, U2OS cell line (bone)",5.95
same,pIC50,"Homo sapiens, U-87 MG, U87MG cell line (brain)",5.25
same,pIC50,"Homo sapiens, UMUC3, 72 h, UMUC3 cell line (bladder)",< 4.30
same,pIC50,"Homo sapiens, UO-31, 72 h, UO31 cell line (kidney)",6.52
same,pIC50,"Homo sapiens, WSU-NHL, WSU-NHL cell line (hematological)",6.25
same,pIC50,"MT-3, 72 h, MT3 cell line (breast)",6.30
same,pIC50,"NCI-H358M, NCIH358M cell line (lung)",6.52
same,pIC50,"PBMC, PBMC (hematological)",5.70
same,pIC50,"RD-ES, RDES cell line (bone)",6.43
